Assay results reported in paper PMC6394990, “Detailed characterization of the solution kinetics and thermodynamics of biotin, biocytin and HABA binding to avidin and streptavidin” (PLoS ONE, 2019).
Read-outs that look alike come from different tables or passages of the source.

Assays:
streptavidin (SAV) = molecular target: T1, streptavidin (SAV) (Streptomyces avidinii, UniProt P22629); assay: Stopped-flow association kinetics of dye-labeled biotin probes binding to streptavidin (F(t), rF(t); Arrhenius plots/global fitting); parameters: kcal/mol (from Arrhenius slope) / Eon for BFl: unit not given here; settings: for ΔG^ǂ / ΔS^ǂ: forward; for kcal/mol (from Arrhenius slope) / slope (Arrhenius linear fit): ph8; for halftime of association, F¯(t) / half-time of association, rF¯(t): probe 20 nM
T1 construct: purchased Sigma Aldrich (St. Louis, MO)
T1 sequence (P22629 25-183): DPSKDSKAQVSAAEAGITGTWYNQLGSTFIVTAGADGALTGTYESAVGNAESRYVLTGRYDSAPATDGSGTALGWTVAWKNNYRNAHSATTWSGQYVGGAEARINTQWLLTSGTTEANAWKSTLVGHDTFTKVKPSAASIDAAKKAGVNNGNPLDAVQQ
Protocol: These reactions were carried out in a buffered solution of 10 mM Tris-HCl, 100 mM KCl, 2.5 mM MgCl2 and 1 mM CaCl2 at pH 8 and only AV-BcO reactions included pH 9 and 10. […] The deglycosylation of AV (for comparative association reactions) was carried out using the provided standard protocol with endoglycosidase H [47], both with and without incubation of a denaturant solution (2% SDS and 1M 2-mercaptoethanol).
The reactions were collected with the SF instrument, described previously. […] The AC(t) and DC(t) data were baseline corrected before obtaining the signal ratio (Eq 4) as a function of time (ρt).
The constant AGain is the instrumental amplitude gain and was evaluated by solving ρ(t) using the known steady state anisotropy (rss) of the complexes which is equivalent to the r(t) at t = ∞; and H, obtained from the equivalent grating factor (G) for the filters and photo multiplier tubes in the SF. For the probes used in here G was 0.82 and H = (1-G)/(1+G) = 0.099. Knowing Again and H, the AC(t) and DC(t) signals can be solved for r(t) and F(t) (Eqs 4 and 5) and the normalized fluorescence, F¯(t) , and corrected fluorescence anisotropy, rF¯(t), were obtained when F¯(0) and rF¯(0) were scaled to 1 at t = 0.
The F¯(t) (Eq 6) is equivalent to (I||) + 2 (I⊥) and proportional to quantum yield (QYi), molar absorptivity (εi) and to the formation or disappearance of the emitting species Xi(t); and rF¯(t) including the steady state anisotropies (rss) of each fluorescent species (Eq 7).
The possible reaction models were discriminated by the squared residuals of the observed and calculated association traces of both fluorescence and anisotropy fluorescence signals, F¯(t) and rF¯(t) , respectively.

avidin (AV) = molecular target: T2, avidin (AV) (Gallus gallus, UniProt P02701); assay: Steady-state anisotropy (rss), AV complex; format: physicochemical; settings: for Steady State Anisotropy rss: AV complex (AB1), 20°C; for AV-increment (%): increase of rss against unbound; for rss, + AV: steady-state anisotropy
T2 construct: purchased Calbiochem (La Jolla, CA)
T2 sequence (P02701 25-152): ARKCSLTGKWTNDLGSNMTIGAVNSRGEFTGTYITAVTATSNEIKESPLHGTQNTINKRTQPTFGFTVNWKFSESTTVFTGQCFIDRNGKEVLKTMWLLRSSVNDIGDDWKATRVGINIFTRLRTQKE
Protocol: The lifetimes (τ), steady state anisotropies (rss), time-resolved anisotropies (rt) and quantum yields (QY) of the complexes (at 20 ± 0.1°C and pH 8) were collected with a dye-labeled B7 probe concentration of 20–40 nM and 1040–2080 nM of either protein (AV or SAV) to ensure that only one binding site in the tetramer was filled with a ligand (AB1 filling model).
The rss measurements were collected using the Giblin-Parkhurst modification of the Wampler-Desa method as described previously. The fluorescence signal was detected in a model A-1010 Alphascan fluorimeter (Photon Technologies, Inc., Birmingham, NJ) equipped with an R928 PMT (Hamamatsu, Bridgewater, NJ). The excitation was provided by an Ar^+ ion laser (Coherent Innova 70–4 Argon, Santa Clara, CA) at 488 nm and 5–10 mW of power incident on the sample. A photoelastic modulator (PEM-80; HINDS International, Inc., Portland, OR) was placed between the laser source and the sample compartment with a retardation level of 1.22π, and the PEM stress axis orientated 45° with respect to the E vector of the laser beam. Two signals were acquired with the PEM alternating between “on” and “off” positions for 10 seconds and the data fitted to a least squared straight line to minimize noise. A minimum of six of these independent measurements were averaged to acquire the rss values. The fluorimeter G factor was determined using a film polarizer and analyzer with an excitation at 488 nm provided by a xenon arc lamp (model A1010, Photon Technologies Inc, Princeton, NJ). The dissociation reactions of dye-labeled B7 and protein complexes were monitored by fluorescence changes and were also collected in the fluorimeter described above.

[1] = SAV, 10 (283.15 K), k (full value)
[2] = SAV, 15 (288.15 K), k (full value)
[3] = SAV, 25 (298.15 K), k (full value)
[4] = pH 8, SAV, pH 8, 10°C, read-out: kon
[5] = pH 8, SAV, pH 8, 15°C, read-out: kon
[6] = pH 8, SAV, pH 8, 20°C, read-out: kon
[7] = pH 8, SAV, pH 8, 25°C, read-out: kon

## O=C(CCCC[C@@H]1SC[C@@H]2NC(=O)N[C@@H]21)NCCNC(=O)c1ccc(-c2c3ccc(=O)cc-3oc3cc(O)ccc23)c(C(=O)O)c1 [BFl, Biotin-4-fluorescein]
Streptavidin (SAV); 25°C
  kon binding to SAV, fold faster than binding to AV: 4 X
Streptavidin (SAV); Enthalpy block, SAV
  Eon for BFl: 6.0
Streptavidin (SAV); SAV-BFl, 10 °C, 200 nM
  kon by corrected fluorescence anisotropy rF(t): 3.75e+07 ± 1.2e+06 M⁻¹ s⁻¹
Streptavidin (SAV); SAV-BFl, 10 °C, 200 nM, read-out: kon by corrected fluorescence anisotropy rF(t)
  kon: 3.75e+07 M⁻¹ s⁻¹
Streptavidin (SAV); SAV-BFl, 10 °C, 200 nM, read-out: kon by fluorescence change F(t)
  kon: 3.73e+07 M⁻¹ s⁻¹
Streptavidin (SAV); SAV-BFl, 10 °C, read-out: kon, Average
  kon: 3.74e+07 M⁻¹ s⁻¹
Streptavidin (SAV); SAV-BFl, 15 °C, 200 nM
  kon by corrected fluorescence anisotropy rF(t): 4.5e+07 ± 1e+06 M⁻¹ s⁻¹
Streptavidin (SAV); SAV-BFl, 15 °C, 200 nM, read-out: kon by corrected fluorescence anisotropy rF(t)
  kon: 4.5e+07 M⁻¹ s⁻¹
Streptavidin (SAV); SAV-BFl, 15 °C, 200 nM, read-out: kon by fluorescence change F(t)
  kon: 4.48e+07 M⁻¹ s⁻¹
Streptavidin (SAV); SAV-BFl, 15 °C, 400 nM
  kon by corrected fluorescence anisotropy rF(t): 4.5e+07 ± 1.7e+06 M⁻¹ s⁻¹
Streptavidin (SAV); SAV-BFl, 15 °C, 400 nM, read-out: kon by corrected fluorescence anisotropy rF(t)
  kon: 4.5e+07 M⁻¹ s⁻¹
Streptavidin (SAV); SAV-BFl, 15 °C, 400 nM, read-out: kon by fluorescence change F(t)
  kon: 4.59e+07 M⁻¹ s⁻¹
Streptavidin (SAV); SAV-BFl, 15 °C, 800 nM
  kon by corrected fluorescence anisotropy rF(t): 4.38e+07 ± 1.9e+06 M⁻¹ s⁻¹
Streptavidin (SAV); SAV-BFl, 15 °C, 800 nM, read-out: kon by corrected fluorescence anisotropy rF(t)
  kon: 4.38e+07 M⁻¹ s⁻¹
Streptavidin (SAV); SAV-BFl, 15 °C, 800 nM, read-out: kon by fluorescence change F(t)
  kon: 4.2e+07 M⁻¹ s⁻¹
Streptavidin (SAV); SAV-BFl, 15 °C, read-out: kon, Average
  kon: 4.44e+07 M⁻¹ s⁻¹
Streptavidin (SAV); SAV-BFl, 20 °C, 200 nM
  kon by corrected fluorescence anisotropy rF(t): 6.25e+07 ± 1.6e+06 M⁻¹ s⁻¹
Streptavidin (SAV); SAV-BFl, 20 °C, 200 nM, read-out: kon by corrected fluorescence anisotropy rF(t)
  kon: 6.25e+07 M⁻¹ s⁻¹
Streptavidin (SAV); SAV-BFl, 20 °C, 200 nM, read-out: kon by fluorescence change F(t)
  kon: 6.23e+07 M⁻¹ s⁻¹
Streptavidin (SAV); SAV-BFl, 20 °C, read-out: kon, Average
  kon: 6.24e+07 M⁻¹ s⁻¹
Streptavidin (SAV); SAV-BFl, 25 °C, 200 nM
  kon by corrected fluorescence anisotropy rF(t): 7.4e+07 ± 2e+06 M⁻¹ s⁻¹
Streptavidin (SAV); SAV-BFl, 25 °C, 200 nM, read-out: kon by corrected fluorescence anisotropy rF(t)
  kon: 7.4e+07 M⁻¹ s⁻¹
Streptavidin (SAV); SAV-BFl, 25 °C, 200 nM, read-out: kon by fluorescence change F(t)
  kon: 7.54e+07 M⁻¹ s⁻¹
Streptavidin (SAV); SAV-BFl, 25 °C, read-out: kon, Average
  kon: 7.47e+07 M⁻¹ s⁻¹
Streptavidin (SAV); SAV, 4°C, calculated by an Arrhenius plot, read-out: kon
  kon: 2.6e+07 M⁻¹ s⁻¹
Streptavidin (SAV); SAV, 10 (283.15 K)
  ln(k): 17.6
Streptavidin (SAV); [1]
  k(average): 4.55E+07
Streptavidin (SAV); SAV, 10 (283.15 K), k (scaled)
  k(average): 45.5
Streptavidin (SAV); SAV, 15 (288.15 K)
  ln(k): 17.8
Streptavidin (SAV); [2]
  k(average): 5.31E+07
Streptavidin (SAV); SAV, 15 (288.15 K), k (scaled)
  k(average): 53.1
Streptavidin (SAV); SAV, 20 (293.15 K)
  ln(k): 17.9
Streptavidin (SAV); SAV, 20 (293.15 K), k (scaled)
  k(average): 58.6
Streptavidin (SAV); SAV, 25 (298.15 K)
  ln(k): 18.1
Streptavidin (SAV); [3]
  k(average): 7.47E+07
Streptavidin (SAV); SAV, 25 (298.15 K), k (scaled)
  k(average): 74.7
Streptavidin (SAV); SAV, 25°C and pH 8
  kon: 7.5 ± 0.2 x 10^7 M^-1s^-1
Streptavidin (SAV); SAV, pH 8
  Ea^Forward: 5.3 ± 0.3 kcal/mol
  ΔG^ǂ: 3.3 ± 0.6 kcal/mol
  ΔS^ǂ: 6.6 ± 0.5 cal/°K·mol
Streptavidin (SAV); SAV
  kcal/mol (from Arrhenius slope): -8101
  slope (Arrhenius linear fit): -4076.8
Streptavidin (SAV); pH 8, SAV, 25°C and pH 8
  kon: ~7.5e+07 M⁻¹ s⁻¹
Streptavidin (SAV); [4]
  kon: 4.54e+07 ± 1e+06 M⁻¹ s⁻¹
Streptavidin (SAV); [5]
  kon: 5.31e+07 ± 2e+06 M⁻¹ s⁻¹
Streptavidin (SAV); [6]
  kon: 5.86e+07 ± 1.6e+06 M⁻¹ s⁻¹
Streptavidin (SAV); [7]
  kon: 7.47e+07 ± 2e+06 M⁻¹ s⁻¹
Streptavidin (SAV); SAV 200 nM, pH 8, 20°C
  halftime of association, F¯(t): 77.3 ms
Streptavidin (SAV); SAV 400 nM, pH 8, 20°C
  halftime of association, F¯(t): 37.7 ms
Streptavidin (SAV); SAV 800 nM, pH 8, 20°C
  halftime of association, F¯(t): 20.6 ms
Avidin (AV)
  Steady State Anisotropy rss: 0.180 ± 0.003
  AV-increment (%): 757.1%
  rss, + AV: 0.18

## NC(CCCCNC(=O)CCCC[C@@H]1SC[C@@H]2NC(=O)N[C@@H]21)C(=O)NCCCCCNC(=O)c1ccc(-c2c3cc(F)c(=O)cc-3oc3cc(O)c(F)cc23)c(C(=O)O)c1 (stereo partly drawn) [BcO, Oregon green 488 Biocytin]
Streptavidin (SAV); 25°C
  kon binding to SAV, fold faster than binding to AV: 3.2 X
Streptavidin (SAV); 277.15 K, follows from the SAV line (m2, b2), protein not printed in the line
  rate at 4C (logarithmic value): 16.3
Streptavidin (SAV); BcO 20 nM, SAV 200 nM, 10°C
  halftime, F¯(t): 200.6 ms
  halftime, rF¯(t): 201.4 ms
  halftime, r¯(t): 332.7 ms
Streptavidin (SAV); SAV 2, reacting with BcO
  b of the line y = m2x+b2: 27.125
Streptavidin (SAV); SAV 2, reacting with BcO, x = 1/Temp
  slope, m of the line y = m2x+b2: -2995.5
Streptavidin (SAV); SAV, 10 (283.15 K)
  ln(k): 16.7
Streptavidin (SAV); [1]
  k(average): 1.73E+07
Streptavidin (SAV); SAV, 10 (283.15 K), k (scaled)
  k(average): 17.3
Streptavidin (SAV); SAV, 15 (288.15 K)
  ln(k): 16.8
Streptavidin (SAV); [2]
  k(average): 2.00E+07
Streptavidin (SAV); SAV, 15 (288.15 K), k (scaled)
  k(average): 20
Streptavidin (SAV); SAV, 20 (293.15 K)
  ln(k): 17.0
Streptavidin (SAV); SAV, 20 (293.15 K), k (full value)
  k(average): 2.40E+07
Streptavidin (SAV); SAV, 20 (293.15 K), k (scaled)
  k(average): 24
Streptavidin (SAV); SAV, 25 (298.15 K)
  ln(k): 17.2
Streptavidin (SAV); [3]
  k(average): 3.03E+07
Streptavidin (SAV); SAV, 25 (298.15 K), k (scaled)
  k(average): 30.3
Streptavidin (SAV); SAV, pH 8
  Ea^Forward: 6.2 ± 0.4 kcal/mol
  ΔG^ǂ: 3.9 ± 0.4 kcal/mol
  ΔS^ǂ: 7.8 ± 0.4 cal/°K·mol
Streptavidin (SAV); SAV
  kcal/mol (from Arrhenius slope): -9583
  slope (Arrhenius linear fit): -4823.1
Streptavidin (SAV); [4]
  kon: 1.73e+07 ± 600000 M⁻¹ s⁻¹
Streptavidin (SAV); [5]
  kon: 2e+07 ± 1.2e+06 M⁻¹ s⁻¹
Streptavidin (SAV); [6]
  kon: 2.4e+07 ± 1.6e+06 M⁻¹ s⁻¹
Streptavidin (SAV); [7]
  kon: 3.03e+07 ± 2e+06 M⁻¹ s⁻¹
Streptavidin (SAV); SAV 200 nM, pH 8, 10°C
  half-time of association, rF¯(t): 202 ms
Streptavidin (SAV); SAV 200 nM, pH 8, 15°C
  half-time of association, rF¯(t): 111 ms
Streptavidin (SAV); SAV 200 nM, pH 8, 20°C
  half-time of association, rF¯(t): 79 ms
Streptavidin (SAV); read-out: kon, mono-exponential fit of F¯(t), BcO 20 nM, SAV 200 nM, 10°C
  kon: 1.73e+07 M⁻¹ s⁻¹
Streptavidin (SAV); read-out: kon, mono-exponential fit of rF¯(t), BcO 20 nM, SAV 200 nM, 10°C
  kon: 1.72e+07 M⁻¹ s⁻¹
Streptavidin (SAV); read-out: kon, mono-exponential fit of uncorrected anisotropy r¯(t), BcO 20 nM, SAV 200 nM, 10°C, ill-fitted signal
  kon: 1.04e+07 M⁻¹ s⁻¹
Avidin (AV)
  Steady State Anisotropy rss: 0.187 ± 0.009
  AV-increment (%): 713.0%
  rss, + AV: 0.187
